Tested on: α-synuclein cytotoxicity in M17-SYNwt cells
Test: α-synuclein cytotoxicity assay: LDH leakage from paraquat-treated M17-SYNwt neuroblastoma cells;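 note: paraquat at 32 mM co-added with compound, 40 h exposure, LDH activity released into the culture medium measured, references are DMSO-only cells and paraquat plus DMSO cells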
Details: Homo sapiens, Neuroblastoma cell; for Emax: read-out: % Inhib.

CCc1ccc(C(=O)N2CCN(c3nc(Cc4cccc(OC)c4)ns3)CC2C)cc1 (stereo not shown) [compound 143, 1-(4-ethylbenzoyl)-4-[3-(3-methoxybenzyl)-1,2,4-thiadiazol-5-yl]-2-methylpiperazine]
EC50: 0.56 µM
Emax: 89%

CC1CN(c2nc(Cc3ccc(F)cc3)ns2)CCN1C(=O)c1cccc(C(F)(F)F)c1 (stereo not shown) [compound 145, 1-(3-trifluoromethylbenzoyl)-4-[3-(4-fluorobenzyl)-1,2,4-thiadiazol-5-yl]-2-methylpiperazine]
EC50: 0.62 µM
Emax: 60%

COc1cccc(Cc2nsc(N3CCN(C(=O)c4ccc(C(C)(C)C)cc4)C(C)C3)n2)c1 (stereo not shown) [compound 146, 1-(4-tert-butylbenzoyl)-4-[3-(3-methoxybenzyl)-1,2,4-thiadiazol-5-yl]-2-methylpiperazine]
EC50: 0.72 µM
Emax: 94%

CCc1ccc(C(=O)N2CCN(c3nc(Cc4ccc(C)cc4)ns3)CC2C)cc1 (stereo not shown) [compound 147, 1-(4-ethylbenzoyl)-4-[3-(4-methylbenzyl)-1,2,4-thiadiazol-5-yl]-2-methylpiperazine]
EC50: 0.84 µM
Emax: 88%

CC1CN(c2nc(Cc3ccc(F)cc3)ns2)CCN1C(=O)c1ccccc1Br (stereo not shown) [compound 148, 1-(2-bromobenzoyl)-4-[3-(4-fluorobenzyl)-1,2,4-thiadiazol-5-yl]-2-methylpiperazine]
EC50: 0.86 µM
Emax: 56%

Cc1ccc(Cc2nsc(N3CCN(C(=O)c4ccccc4F)C(C)C3)n2)cc1 (stereo not shown) [compound 149, 1-(2-fluorobenzoyl)-4-[3-(4-methylbenzyl)-1,2,4-thiadiazol-5-yl]-2-methylpiperazine]
EC50: 0.98 µM
Emax: 105%

CC1CN(c2nc(Cc3ccccc3)ns2)CCN1C(=O)c1cccc(F)c1 (stereo not shown) [compound 150, 1-(3-fluorobenzoyl)-4-[3-benzyl-1,2,4-thiadiazol-5-yl]-2-methylpiperazine]
EC50: 1.14 µM
Emax: 99%

Cc1ccc(Cc2nsc(N3CCN(C(=O)c4ccc(F)cc4)C(C)C3)n2)cc1 (stereo not shown) [compound 151, 1-(4-fluorobenzoyl)-4-[3-(4-methylbenzyl)-1,2,4-thiadiazol-5-yl]-2-methylpiperazine]
EC50: 1.14 µM
Emax: 73%

Cc1ccccc1C(=O)N1CCN(c2nc(Cc3ccc(F)cc3)ns2)CC1 [compound 152, 1-(2-methylbenzoyl)-4-[3-(4-fluorobenzyl)-1,2,4-thiadiazol-5-yl]piperazine]
EC50: 1.15 µM
Emax: 66%

O=C(c1ccc(F)cc1)N1CCN(c2nc(Cc3ccc(Cl)cc3)ns2)CC1 [compound 153, 1-(4-fluorobenzoyl)-4-[3-(4-chlorobenzyl)-1,2,4-thiadiazol-5-yl]piperazine]
EC50: 1.44 µM
Emax: 53%

CC1CN(c2nc(Cc3ccccc3)ns2)CCN1C(=O)c1ccc(F)cc1 (stereo not shown) [compound 154, 1-(4-fluorobenzoyl)-4-[3-benzyl-1,2,4-thiadiazol-5-yl]-2-methylpiperazine]
EC50: 1.58 µM
Emax: 75%

Cc1ccc(Cc2nsc(N3CCN(C(=O)c4ccc(Cl)cc4)CC3)n2)cc1 [compound 155, 1-(4-chlorobenzoyl)-4-[3-(4-methylbenzyl)-1,2,4-thiadiazol-5-yl]piperazine]
EC50: 1.64 µM
Emax: 76%

Cc1ccc(Cc2nsc(N3CCN(C(=O)c4cccc(F)c4)C(C)C3)n2)cc1 (stereo not shown) [compound 156, 1-(3-fluorobenzoyl)-4-[3-(4-methylbenzyl)-1,2,4-thiadiazol-5-yl]-2-methylpiperazine]
EC50: 1.67 µM
Emax: 86%

O=C(c1cccc(F)c1)N1CCN(c2nc(Cc3ccc(Cl)cc3)ns2)CC1 [compound 157, 1-(3-fluorobenzoyl)-4-[3-(4-chlorobenzyl)-1,2,4-thiadiazol-5-yl]piperazine]
EC50: 1.7 µM
Emax: 70%

Cc1ccc(Cc2nsc(N3CCN(C(=O)c4ccccc4)CC3)n2)cc1 [compound 158, 1-benzoyl-4-[3-(4-methylbenzyl)-1,2,4-thiadiazol-5-yl]piperazine]
EC50: 2.1 µM
Emax: 57%

O=C(c1ccccc1F)N1CCN(c2nc(Cc3ccc(Cl)cc3)ns2)CC1 [compound 159, 1-(2-fluorobenzoyl)-4-[3-(4-chlorobenzyl)-1,2,4-thiadiazol-5-yl]piperazine]
EC50: 2.85 µM
Emax: 48%

Cc1ccc(Cc2nsc(N3CCN(C(=O)c4ccc(F)cc4)CC3)n2)cc1 [compound 160, 1-(4-fluorobenzoyl)-4-[3-(4-methylbenzyl)-1,2,4-thiadiazol-5-yl]piperazine]
EC50: 2.87 µM
Emax: 88%

Cc1ccc(Cc2nsc(N3CCN(C(=O)c4ccc5c(c4)OCO5)C(C)C3)n2)cc1 (stereo not shown) [compound 161, 1-(1,3-benzodioxol-5-ylcarbonyl)-4-[3-(4-methylbenzyl)-1,2,4-thiadiazol-5-yl]-2-methyl + B176piperazine]
EC50: 3.36 µM
Emax: 101%

Cc1ccc(Cc2nsc(N3CCN(C(=O)c4cccc(F)c4)CC3)n2)cc1 [compound 162, 1-(3-flurorbenzoyl)-4-[3-(4-methylbenzyl)-1,2,4-thiadiazol-5-yl]piperazine]
EC50: 3.4 µM
Emax: 101%

O=C(c1ccc(F)cc1)N1CCN(c2nc(Cc3ccccc3)ns2)CC1 [compound 163, 1-(4-fluorobenzoyl)-4-[3-benzyl-1,2,4-thiadiazol-5-yl]piperazine]
EC50: 3.61 µM
Emax: 67%

Cc1ccc(Cc2nsc(N3CCN(C(=O)c4ccc(Br)cc4)CC3)n2)cc1 [compound 164, 1-(4-bromobenzoyl)-4-[3-(4-methylbenzyl)-1,2,4-thiadiazol-5-yl]piperazine]
EC50: 3.86 µM
Emax: 60%

CCc1ccc(C(=O)N2CCN(c3nc(Cc4ccc(Cl)cc4)ns3)CC2)cc1 [compound 165, 1-(4-ethylbenzoyl)-4-[3-(4-chlorobenzyl)-1,2,4-thiadiazol-5-yl]piperazine]
Emax: 133%

CC1CN(c2nc(Cc3ccc(F)cc3)ns2)CCN1C(=O)c1ccccc1Cl (stereo not shown) [compound 166, 1-(2-chlorobenzoyl)-4-[3-(4-fluorobenzyl)-1,2,4-thiadiazol-5-yl]-2-methylpiperazine]
Emax: 123%

CC1CN(c2nc(Cc3ccc(Cl)cc3)ns2)CCN1C(=O)c1ccccc1F (stereo not shown) [compound 167, 1-(2-fluorobenzoyl)-4-[3-(4-chlorobenzyl)-1,2,4-thiadiazol-5-yl]-2-methylpiperazine]
Emax: 117%

COc1cccc(Cc2nsc(N3CCN(C(=O)c4ccc(C(F)(F)F)cc4)C(C)C3)n2)c1 (stereo not shown) [compound 168, 1-(4-trifluoromethylbenzoyl)-4-[3-(3-methoxybenzyl)-1,2,4-thiadiazol-5-yl]-2-methylpiperazine]
Emax: 91%

Cc1ccc(Cc2nsc(N3CCN(C(=O)c4ccccc4)C(C)C3)n2)cc1 (stereo not shown) [compound 169, 1-benzoyl-4-[3-(4-methylbenzyl)-1,2,4-thiadiazol-5-yl]-2-methylpiperazine]
Emax: 91%

COc1cccc(Cc2nsc(N3CCN(C(=O)c4ccc(Br)cc4)C(C)C3)n2)c1 (stereo not shown) [compound 170, 1-(4-bromobenzoyl)-4-[3-(3-methoxybenzyl)-1,2,4-thiadiazol-5-yl]-2-methylpiperazine]
Emax: 89%

Cc1ccc(Cc2nsc(N3CCN(C(=O)c4ccc(C(F)(F)F)cc4)CC3)n2)cc1 [compound 171, 1-(4-trifluoromethylbenzoyl)-4-[3-(4-methylbenzyl)-1,2,4-thiadiazol-5-yl]piperazine]
Emax: 86%

Source: US7960556B2, “Thiadiazole derivatives for the treatment of neuro-degenerative diseases” (NV reMYND, priority 2006, dated 2011)
